In patent publication US11466273B2, “Monocarboxylate transporter 4 (MCT4) antisense oligonucleotide (ASO) inhibitors for use as therapeutics in the treatment of cancer” (THE UNIVERSITY OF BRITISH COLUMBIA, priority 2015, dated 2022):
Strand notation (5' to 3'): a small letter for the sugar, then the base; units joined by * are phosphorothioate-linked, units joined directly phosphodiester-linked; [ ] holds rarer units or linkages, { } end groups; capitals alone tell only the bases. d = 2'-deoxy (DNA)

System: MCT4
Test: Percent inhibition of MCT4 by MCT4 ASOs (knock-down after transfection, qPCR/Western blot)
Type: cell-based, human
Procedure: First-generation phosphorothioate-modified ASOs against human MCT4 were rationally designed by selecting sequences containing favourable motifs while excluding unfavourable ones (Matveeva et al., 2000). Specificity of MCT4-targeting sequences, compared to human and mouse genes (at least 3 of 20 bases mismatched), was evaluated using BLAST. Ten sequences SEQ ID No: 1, 4, 5, 9, 11, 30, 36, 37, 40 and 41 (see TABLE A) distributed throughout the length of the transcript with perfect complementarity to all human MCT4 transcript variants (NM_001042422.2, NM_001042423.2, NM_001206950.1, NM_001206951.1, NM_001206952.1, and NM_004207.3) were selected and synthesized by Eurofins MWG Operon. The knock-down efficiencies of these ten ASOs were tested by determining target mRNA and protein expression 48 hours after transfection of cells using qPCR and Western blotting. Two candidate ASOs (#1 and #14—SEQ ID NOs: 1 and 5, respectively) were selected for further studies. Sequences: ASO #1 (SEQ ID NO: 1), 5′-[…]-3′; ASO #14 (SEQ ID NO: 5), 5′-[…]-3′; a published non-targeting control ASO, 5′-[…]-3′ (Mullick et al., 2011; Samuel et al., 2006).
Cells were transfected in 6-well plates with ASOs at 100 nM for 48 hours (unless otherwise indicated) using Oligofectamine™ (Invitrogen™, Carlsbad, Calif.) or with MCT4-targeting siRNAs and controls (Dharmacon™, Chicago, Ill.) at 50 nM for 48 hours using Lipofectamine™ 2000 (Invitrogen™), following the manufacturer's instructions.
Total RNA was isolated using the RNeasy Mini Kit™ (Qiagen Inc.™, Hilden, Germany) and cDNA synthesized using the QuantiTect Reverse Transcription Kit™ (Qiagen™). Primers were designed using Primer-BLAST™. qRT-PCR reactions using KAPA SYBR Fast Universal™ (Kapa Biosystems™, Woburn, Mass.) were performed in triplicate in a ViiA 7 Real-Time PCR™ system (Applied Biosystems™, Foster City, Calif.). Target genes were normalized to a geometric average of 3 internal reference genes (Vandesompele et al., 2002).
Cells were harvested and lysed in RIPA buffer (50 mM Tris-Cl pH 7.4, 150 mM NaCl, 1% Igepal, 0.5% Na-deoxycholate, 0.1% SDS) supplemented with a complete protease inhibitor cocktail (Roche, Nutley, N.J.). The protein concentration of the lysate was determined by Pierce BCA Protein Assay™ (Thermo Scientific™, Waltham, Mass.). The lysate was run on 8% SDS polyacrylamide gel (20 ug of protein per lane) and proteins were transferred onto PVDF membrane (Millipore™, Billerica, Mass.). The blot was blocked with the Odyssey™ blocking buffer (Li-cor Biosciences™) and probed with anti-MCT4 antibody. Vinculin was used as a loading control. Following overnight incubation at 4° C., the primary antibody was probed with the corresponding secondary antibody and detected using the Odyssey Infrared Imaging System™ (Li-cor Biosciences™) and Image Studio Version 3.1™ (Li-cor Biosciences™). Densitometry analysis was done using ImageJ (U.S. National Institutes of Health, Bethesda, Md.).

[1] = Table A, ASOs transfected at 100 nM for 48 hours unless otherwise indicated

Substance | % MCT4 Inhibition [1] | % MCT4 Inhibition (Table B, SEQ ID NO 1 and 16 mer truncations)
1 (TCCCATGGCCAGGAGGGTTG; antisense; DNA, all phosphorothioate, methylation of C not given here; listed as Homo sapiens) [compound 1] | 65.52% | 65.52%
2 (GTCCCGGAAGACGCTCAGGT; antisense; DNA, all phosphorothioate, methylation of C not given here; listed as Homo sapiens) [compound 2] | 86.33% | –
3 (AAGGACGCAGCCACCATGCC; antisense; DNA, all phosphorothioate, methylation of C not given here; listed as Homo sapiens) [compound 3] | 71.19% | –
4 (TTGGCGTAGCTCACCACGAA; antisense; DNA, all phosphorothioate, methylation of C not given here; listed as Homo sapiens) [compound 4] | 77.13% | –
5 (AGATGCAGAAGACCACGAGG; antisense; DNA, all phosphorothioate, methylation of C not given here; listed as Homo sapiens) [compound 5] | 78.16% | –
6 (CCACTCTGGAATGACACGGT; antisense; DNA, all phosphorothioate, methylation of C not given here; listed as Homo sapiens) [compound 6] | 78.67% | –
7 (GTAGGAGAAGCCAGTGATGAC; antisense; DNA, all phosphorothioate, methylation of C not given here; listed as Homo sapiens) [compound 7] | 66.31% | –
8 (AGCATGGCCAGCAGGATGGA; antisense; DNA, all phosphorothioate, methylation of C not given here; listed as Homo sapiens) [compound 8] | 80.77% | –
9 (GGCTGGAAGTTGAGTGCCAA; antisense; DNA, all phosphorothioate, methylation of C not given here; listed as Homo sapiens) [compound 9] | 76.03% | –
10 (CATGCCGTAGGAGATGCCAA; antisense; DNA, all phosphorothioate, methylation of C not given here; listed as Homo sapiens) [compound 10] | 76.51% | –
11 (CTCAGGCTGTGGCTCTTTGG; antisense; DNA, all phosphorothioate, methylation of C not given here; listed as Homo sapiens) [compound 11] | 63.01% | –
12 (TAGCGGTTCAGCATGATGA; antisense; DNA, all phosphorothioate, methylation of C not given here; listed as Homo sapiens) [compound 12] | 70.36% | –
13 (AGCACGGCCCAGCCCCAGCC; antisense; DNA, all phosphorothioate, methylation of C not given here; listed as Homo sapiens) [compound 13] | 66.85% | –
14 (GAGCTCCTTGAAGAAGACACT; antisense; DNA, all phosphorothioate, methylation of C not given here; listed as Homo sapiens) [compound 14] | 72.00% | –
15 (dC*dA*dG*dG*dA*dT*dG*dG*dA*dG*dG*dA*dG*dA*dT*dC*dC*dA*dG*dG; antisense; listed as Homo sapiens) [compound 15] | 75.58% | –
16 (dA*dG*dA*dC*dC*dC*dC*dC*dC*dA*dC*dA*dA*dG*dC*dA*dT*dG*dA*dC; antisense; listed as Homo sapiens) [compound 16] | 55.47% | –
17 (dG*dA*dA*dG*dT*dT*dG*dA*dG*dT*dG*dC*dC*dA*dA*dA*dC*dC*dC*dA*dA; antisense; listed as Homo sapiens) [compound 17] | 70.93% | –
18 (dC*dC*dC*dG*dT*dT*dG*dG*dC*dC*dA*dT*dG*dG*dG*dG*dC*dG*dC*dC; antisense; listed as Homo sapiens) [compound 18] | 71.14% | –
19 (dG*dC*dC*dA*dG*dC*dC*dC*dG*dT*dT*dG*dG*dC*dC*dA*dT*dG*dG*dG; antisense; listed as Homo sapiens) [compound 19] | 80.26% | –

Substance | % MCT4 Inhibition [1] | % MCT4 Inhibition (Table B, SEQ ID NO 1 and 16 mer truncations)
20 (dA*dG*dG*dA*dA*dG*dA*dC*dA*dG*dG*dG*dC*dT*dA*dC*dC*dT*dG*dC; antisense; listed as Homo sapiens) [compound 20] | 66.26% | –
21 (dG*dC*dA*dC*dA*dC*dA*dG*dG*dA*dA*dG*dA*dC*dA*dG*dG*dG*dC*dT; antisense; listed as Homo sapiens) [compound 21] | 60.36% | –
22 (dC*dA*dG*dG*dG*dC*dA*dC*dA*dC*dA*dG*dG*dA*dA*dG*dA*dC*dA*dG; antisense; listed as Homo sapiens) [compound 22] | 79.96% | –
23 (dC*dA*dG*dC*dA*dG*dT*dT*dG*dA*dG*dC*dA*dG*dC*dA*dG*dG*dC*dC; antisense; listed as Homo sapiens) [compound 23] | 65.41% | –
24 (dG*dA*dC*dC*dT*dG*dT*dC*dC*dC*dG*dT*dA*dG*dA*dG*dC*dA*dT*dG; antisense; listed as Homo sapiens) [compound 24] | 47.24% | –
25 (dT*dT*dC*dC*dC*dA*dA*dG*dC*dC*dC*dC*dG*dC*dC*dA*dC*dG*dA*dA; antisense; listed as Homo sapiens) [compound 25] | 22.88% | –
26 (dA*dA*dT*dG*dC*dT*dC*dC*dA*dC*dC*dT*dC*dC*dC*dG*dC*dA*dA*dG; antisense; listed as Homo sapiens) [compound 26] | 9.55% | –
27 (dA*dC*dC*dT*dC*dC*dC*dC*dG*dT*dT*dT*dT*dT*dC*dT*dC*dA*dG*dG; antisense; listed as Homo sapiens) [compound 27] | 3.17% | –
28 (dT*dG*dT*dG*dA*dA*dC*dC*dA*dC*dC*dT*dC*dC*dC*dC*dG*dT*dT*dT; antisense; listed as Homo sapiens) [compound 28] | 29.91% | –
29 (dT*dC*dT*dG*dT*dA*dC*dC*dT*dC*dC*dT*dC*dC*dC*dT*dG*dT*dG*dC; antisense; listed as Homo sapiens) [compound 29] | 16.31% | –
30 (dG*dA*dA*dT*dG*dA*dC*dA*dC*dG*dG*dT*dT*dC*dC*dC*dA*dC*dC*dC; antisense; listed as Homo sapiens) [compound 30] | 25.51% | –
31 (dG*dC*dC*dC*dA*dC*dC*dC*dA*dC*dC*dC*dT*dC*dC*dC*dA*dT*dT*dA; antisense; listed as Homo sapiens) [compound 31] | -43.4% | –
32 (dA*dA*dG*dA*dG*dA*dC*dC*dC*dC*dC*dC*dA*dC*dA*dA*dG*dC*dA*dT; antisense; listed as Homo sapiens) [compound 32] | 18.67% | –
33 (dC*dC*dC*dA*dC*dC*dA*dT*dG*dC*dC*dG*dT*dA*dG*dG*dA*dG*dA*dT; antisense; listed as Homo sapiens) [compound 33] | 49.00% | –
34 (dA*dG*dT*dC*dC*dA*dC*dC*dC*dC*dC*dG*dA*dG*dT*dC*dT*dG*dC*dA; antisense; listed as Homo sapiens) [compound 34] | 20.5% | –
35 (dC*dT*dT*dC*dA*dC*dC*dG*dC*dA*dG*dA*dT*dC*dC*dA*dC*dT*dC*dT; antisense; listed as Homo sapiens) [compound 35] | -10.07% | –
36 (dA*dA*dC*dA*dC*dT*dC*dC*dA*dC*dC*dC*dA*dC*dA*dC*dG*dC*dA*dG; antisense; listed as Homo sapiens) [compound 36] | 9.33% | –
37 (dC*dC*dA*dG*dC*dC*dA*dC*dT*dC*dA*dG*dA*dC*dA*dC*dT*dT*dG*dT; antisense; listed as Homo sapiens) [compound 37] | 33.14% | –
